{
  "source": "patent US20110142911A1",
  "about": "“HIV epitopes and pharmaceutical composition containing same” (Centre National de la Recherche Scientifique (CNRS), priority 2005, published 2011)",
  "test_system": "CD4+ T cells isolated from HLA-DR1 patients infected by HIV-1",
  "assay": "IFN-γ ELISPOT test on PBMCs of HLA-DR1 patients infected by HIV-1",
  "type": "cell-based, human",
  "conditions": "patient 5.002/1",
  "procedure": "FIG. 4: Table 3: Responses with secretion of IFN-γγ by CD4+ T cells isolated from HLA-DR1 patients infected by HIV-1 are illustrated in this Table. The responses of specific human CD4+ T cells of HIV-1 were evaluated by an ELISPOT test as described in the section “Materials and Methods”. The responses were evaluated with or without eliminating CD8+ T cells. The peptides used for stimulating PBMCs were either a set of peptides overlapping in length by 15 amino acids (set of 11 consecutive peptides), or a peptide of 20 amino acids in length.\nThe individuals infected by HIV-1 were selected from the French cohort ALT and selected with regard to their HLA-DR1 profile. The long term non-progressor condition of the patients was defined as being an asymptomatic HIV infection for at least 8 years, with a stable CD4+ T cell count at a level larger than or equal to 600 cells/mm^3, and without any anti-retrovirus therapy (Candotti at al., J. Med. Virol. 1999, 58:256-63).\nHIV-1-specific human CD4+ T cell response towards various peptides was quantitated by the ELISPOT test on frozen mononuclear cells of peripheral blood (PBMC: peripheral blood mononuclear cells), as described earlier (Forsthubert et al., Science, 1996, 271:1728-30).\nELISPOT 96-well plates (Millipore, Molsheim, France) were covered with an antibody directed against human IFN-γγ (IgG1/B-B1, Diaclone, Strasburg, France).\nAfter a blocking step in the presence of a medium containing 10% SVF, 1·10^5 PBMCs were distributed into the wells. The experiment was conducted in triplicate. The cells were grown during the night following their thawing. Next, the plates were incubated at 35° C. for 18 hours in the presence of 2 μg/ml of peptides derived from the Gag protein of HIV-1 (a 15-mer or 20-mer overlapping peptide; cf. Table 3).\nPhytohemagglutinin (Murex, Paris, France, […]) and the medium alone were used as a positive and a negative control, respectively.\nThe wells were then subsequently washed and spots were detected by adding the detection antibody directly against human IFN-γγ and marked with biotin (B-G1-Diaclone) (4 hours, 37° C.), followed by adding the alkaline phosphatase on the streptavidin (1 hour, 37° C.) and the substrate (5-bromo-4-3-indolyl-phosphate/4-nitro-blue-tetrazolium; Sigma, Saint-Quentin Falavier, France). Incubation was maintained at room temperature, until blue dots appeared. The frequency of spot forming cells (SFCs) specific to the antigens was measured by means of an automated microscopy system (ZEISS, Munich, Germany) and counted as positive if a minimum of 50 SFCs/1·10^6 of PBMCs were detected above the background noise. […]\nRecognition of the epitopes identified by CD4+ cells isolated from HLA-DR1+ patients infected by HIV-1 was evaluated by using the ELISPOT test. […]",
  "data": [
    {"substance": "Gag331-350: novel 20 amino acid HLA-DR1 restricted epitope peptide of the HIV-1 Gag p24 protein (KTILKALGPAATLEEMMTAC; Gag polyprotein; UniProt P04591 331-350, looked up, fragment)", "values": [
      {"measurement": "IFN-γ ELISPOT recognition by CD4+ T cells", "result": "recognized"}
    ]}
  ]
}
